Test results: the supplement of paper PMC11061612

How the values were obtained:
[1] = tested on: SNU-449 (Hepatocellular Carcinoma); assay: combination Emax (second highest fraction inhibited in the dose matrix, 72 h); higher = more inhibition; extreme values may be limits of the assay
Outline: (§1)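 Bliss excess equals the observed combination effect minus the expected value EA + EB − EA·EB, where EA and EB are the effects of each agent alone. Combination Emax is the second-highest inhibition within the matrix. Inhibition was scaled from CellTiter-Glo 2.0 luminescence, with 0 set by vehicle wells and 1 by blank wells, after 72 hours of two-drug dosing of cells plated in 1536-well plates.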

[2] = tested on: HuCCT1 (Biliary Tract Carcinoma); assay: as above
Outline: as §1

A673 (Ewing's Sarcoma) [3] = assay: as above
Outline: as §1

EW-11 (Ewing's Sarcoma) [4] = assay: as above
Outline: as §1

[5] = tested on: YAPC (Pancreatic Carcinoma); assay: as above
Outline: as §1

[6] = tested on: SAS (Oral Cavity Carcinoma); assay: as above
Outline: as §1

[7] = tested on: TGBC1TKB (Biliary Tract Carcinoma); assay: as above
Outline: as §1

[8] = tested on: WSU-NHL (B-Cell Non-Hodgkin's Lymphoma); assay: as above
Outline: as §1

[9] = tested on: HH (T-Cell Non-Hodgkin's Lymphoma); assay: as above
Outline: as §1

LOXIMVI (Melanoma) [10] = assay: as above
Outline: as §1

[11] = tested on: OVCAR-5 (Ovarian Carcinoma); assay: as above
Outline: as §1

[12] = tested on: LNZTA3WT4 (Low Grade Glioma); assay: as above
Outline: as §1

[13] = tested on: SW1710 (Bladder Carcinoma); assay: as above
Outline: as §1

MPP-89 (Mesothelioma) [14] = assay: as above
Outline: as §1

[15] = tested on: ESS-1 (Other Solid Carcinomas); assay: as above
Outline: as §1

[16] = tested on: SNU-16 (Gastric Carcinoma); assay: as above
Outline: as §1

[17] = tested on: BE-13 (T-Lymphoblastic Leukemia); assay: as above
Outline: as §1

KS-1 (Glioblastoma) [18] = assay: as above
Outline: as §1

[19] = tested on: KYAE-1 (Esophageal Adenocarcinoma); assay: as above
Outline: as §1

CAL-72 (Osteosarcoma) [20] = assay: as above
Outline: as §1

GAMG (Glioblastoma) [21] = assay: as above
Outline: as §1

[22] = tested on: NCI-H524 (Small Cell Lung Carcinoma); assay: as above
Outline: as §1

[23] = tested on: SNU-449 (Hepatocellular Carcinoma); assay: Bliss excess, mean over the matrix (fraction); higher = more synergy
Outline: as §1

[24] = tested on: HuCCT1 (Biliary Tract Carcinoma); assay: as above
Outline: as §1

A673 (Ewing's Sarcoma) [25] = assay: as above
Outline: as §1

EW-11 (Ewing's Sarcoma) [26] = assay: as above
Outline: as §1

[27] = tested on: YAPC (Pancreatic Carcinoma); assay: as above
Outline: as §1

[28] = tested on: SAS (Oral Cavity Carcinoma); assay: as above
Outline: as §1

[29] = tested on: TGBC1TKB (Biliary Tract Carcinoma); assay: as above
Outline: as §1

[30] = tested on: WSU-NHL (B-Cell Non-Hodgkin's Lymphoma); assay: as above
Outline: as §1

[31] = tested on: HH (T-Cell Non-Hodgkin's Lymphoma); assay: as above
Outline: as §1

LOXIMVI (Melanoma) [32] = assay: as above
Outline: as §1

[33] = tested on: OVCAR-5 (Ovarian Carcinoma); assay: as above
Outline: as §1

[34] = tested on: LNZTA3WT4 (Low Grade Glioma); assay: as above
Outline: as §1

[35] = tested on: SW1710 (Bladder Carcinoma); assay: as above
Outline: as §1

MPP-89 (Mesothelioma) [36] = assay: as above
Outline: as §1

[37] = tested on: ESS-1 (Other Solid Carcinomas); assay: as above
Outline: as §1

[38] = tested on: SNU-16 (Gastric Carcinoma); assay: as above
Outline: as §1

[39] = tested on: BE-13 (T-Lymphoblastic Leukemia); assay: as above
Outline: as §1

KS-1 (Glioblastoma) [40] = assay: as above
Outline: as §1

[41] = tested on: KYAE-1 (Esophageal Adenocarcinoma); assay: as above
Outline: as §1

CAL-72 (Osteosarcoma) [42] = assay: as above
Outline: as §1

GAMG (Glioblastoma) [43] = assay: as above
Outline: as §1

[44] = tested on: NCI-H524 (Small Cell Lung Carcinoma); assay: as above
Outline: as §1

`CN(CCO)CC[C@H](CSc1ccccc1)Nc1ccc(S(=O)(=O)NC(=O)c2ccc(N3CCC([C@@H](O)c4ccccc4-c4ccc(Cl)cc4)CC3)cc2)cc1S(=O)(=O)C(F)(F)F` [AZD4320] + CS(=O)(=O)CCNCc1ccc(-c2ccc3ncnc(Nc4ccc(OCc5cccc(F)c5)c(Cl)c4)c3c2)o1 [Lapatinib] (first compound max 1 µM, 7x7, partner max 10 µM) was tested, and the “combination Emax” value [1] was 0.694, the “combination Emax” value [2] was 0.615 and the “combination Emax” value (A673 (Ewing's Sarcoma) [3]) was 0.973. For the same compound, the “combination Emax” value (EW-11 (Ewing's Sarcoma) [4]) was 0.95, the “combination Emax” value [5] was 0.257 and the “combination Emax” value [6] was 0.525. The “combination Emax” value [7] was 0.58, the “combination Emax” value [8] was 0.945 and the “combination Emax” value [9] was 0.316. The “combination Emax” value (LOXIMVI (Melanoma) [10]) was 0.64, the “combination Emax” value [11] was 0.896 and the “combination Emax” value [12] was 0.398. For the same compound, the “combination Emax” value [13] was 0.553, the “combination Emax” value (MPP-89 (Mesothelioma) [14]) was 0.746 and the “combination Emax” value [15] was 0.973. For the same compound, the “combination Emax” value [16] was 0.941, the “combination Emax” value [17] was 1 and the “combination Emax” value (KS-1 (Glioblastoma) [18]) was 0.475. For the same compound, the “combination Emax” value [19] was 0.97, the “combination Emax” value (CAL-72 (Osteosarcoma) [20]) was 0.933 and the “combination Emax” value (GAMG (Glioblastoma) [21]) was 0.951. The “combination Emax” value [22] was 0.968, the Bliss excess [23] was 0.021 and the Bliss excess [24] was -0.0052. The Bliss excess (A673 (Ewing's Sarcoma) [25]) was 0.0505, the Bliss excess (EW-11 (Ewing's Sarcoma) [26]) was 0.0342 and the Bliss excess [27] was -0.0148. The Bliss excess [28] was 0.0214, the Bliss excess [29] was 0.0019 and the Bliss excess [30] was 0.0183. The Bliss excess [31] was 0.0112, the Bliss excess (LOXIMVI (Melanoma) [32]) was 0.0113 and the Bliss excess [33] was -0.0031. The Bliss excess [34] was 0.0677, the Bliss excess [35] was -0.0324 and the Bliss excess (MPP-89 (Mesothelioma) [36]) was 0.0479. It also gave a Bliss excess [37] of 0.0668, a Bliss excess [38] of 0.0399 and a Bliss excess [39] of 0.0292. For the same compound, the Bliss excess (KS-1 (Glioblastoma) [40]) was 0.0137, the Bliss excess [41] was 0.0699 and the Bliss excess (CAL-72 (Osteosarcoma) [42]) was -0.0174. The Bliss excess (GAMG (Glioblastoma) [43]) was 0.1 and the Bliss excess [44] was 0.0798.
With `CN(CCO)CC[C@H](CSc1ccccc1)Nc1ccc(S(=O)(=O)NC(=O)c2ccc(N3CCC([C@@H](O)c4ccccc4-c4ccc(Cl)cc4)CC3)cc2)cc1S(=O)(=O)C(F)(F)F` [AZD4320] + CC(=O)O[C@H]1C(=O)[C@@]2(C)[C@H]([C@H](OC(=O)c3ccccc3)[C@]3(O)C[C@H](OC(=O)[C@H](O)[C@@H](NC(=O)c4ccccc4)c4ccccc4)C(C)=C1C3(C)C)[C@]1(OC(C)=O)CO[C@@H]1C[C@@H]2O [Paclitaxel] (first compound max 1 µM, 7x7, partner max 3 µM) the “combination Emax” value [1] was 0.414, the “combination Emax” value [2] was 0.671 and the “combination Emax” value (A673 (Ewing's Sarcoma) [3]) was 1. The “combination Emax” value (EW-11 (Ewing's Sarcoma) [4]) was 0.927, the “combination Emax” value [5] was 0.395 and the “combination Emax” value [6] was 0.971. For the same compound, the “combination Emax” value [7] was 0.894, the “combination Emax” value [8] was 1 and the “combination Emax” value [9] was 0.837. The “combination Emax” value (LOXIMVI (Melanoma) [10]) was 0.955, the “combination Emax” value [11] was 0.973 and the “combination Emax” value [12] was 0.967. The “combination Emax” value [13] was 0.98, the “combination Emax” value (MPP-89 (Mesothelioma) [14]) was 0.983 and the “combination Emax” value [15] was 1. The “combination Emax” value [16] was 1, the “combination Emax” value [17] was 1 and the “combination Emax” value (KS-1 (Glioblastoma) [18]) was 0.937. The “combination Emax” value [19] was 0.587, the “combination Emax” value (GAMG (Glioblastoma) [21]) was 1 and the “combination Emax” value [22] was 1. The Bliss excess [23] was -0.0162, the Bliss excess [24] was 0.0276 and the Bliss excess (A673 (Ewing's Sarcoma) [25]) was 0.0654. For the same compound, the Bliss excess (EW-11 (Ewing's Sarcoma) [26]) was 0.0303, the Bliss excess [27] was -0.0321 and the Bliss excess [28] was 0.0322. For the same compound, the Bliss excess [29] was 0.118, the Bliss excess [30] was 0.0294 and the Bliss excess [31] was 0.254. For the same compound, the Bliss excess (LOXIMVI (Melanoma) [32]) was 0.0164, the Bliss excess [33] was 0.0576 and the Bliss excess [34] was 0.0016. The Bliss excess [35] was 0.141, the Bliss excess (MPP-89 (Mesothelioma) [36]) was 0.108 and the Bliss excess [37] was 0.0663. The Bliss excess [38] was 0.0287, the Bliss excess [39] was 0.0037 and the Bliss excess (KS-1 (Glioblastoma) [40]) was 0.217. The Bliss excess [41] was 0.0811, the Bliss excess (CAL-72 (Osteosarcoma) [42]) was 0.19 and the Bliss excess (GAMG (Glioblastoma) [43]) was 0.095. The Bliss excess [44] was 0.0333.
`CN(CCO)CC[C@H](CSc1ccccc1)Nc1ccc(S(=O)(=O)NC(=O)c2ccc(N3CCC([C@@H](O)c4ccccc4-c4ccc(Cl)cc4)CC3)cc2)cc1S(=O)(=O)C(F)(F)F` [AZD4320] + Nc1ccn([C@@H]2O[C@H](CO)[C@@H](O)C2(F)F)c(=O)n1 [Gemcitabine] (first compound max 1 µM, 7x7, partner max 0.3 µM) was tested, and the “combination Emax” value [1] was 0.367, the “combination Emax” value [2] was 0.476 and the “combination Emax” value (A673 (Ewing's Sarcoma) [3]) was 0.995. For the same compound, the “combination Emax” value (EW-11 (Ewing's Sarcoma) [4]) was 0.92, the “combination Emax” value [5] was 0.535 and the “combination Emax” value [6] was 0.983. For the same compound, the “combination Emax” value [7] was 0.408, the “combination Emax” value [8] was 0.995 and the “combination Emax” value [9] was 0.293. For the same compound, the “combination Emax” value (LOXIMVI (Melanoma) [10]) was 0.925, the “combination Emax” value [11] was 0.633 and the “combination Emax” value [12] was 0.608. For the same compound, the “combination Emax” value [13] was 0.51, the “combination Emax” value (MPP-89 (Mesothelioma) [14]) was 0.78 and the “combination Emax” value [15] was 0.998. The “combination Emax” value [16] was 0.934, the “combination Emax” value [17] was 1 and the “combination Emax” value (KS-1 (Glioblastoma) [18]) was 0.304. For the same compound, the “combination Emax” value [19] was 0.32, the “combination Emax” value (CAL-72 (Osteosarcoma) [20]) was 0.854 and the “combination Emax” value (GAMG (Glioblastoma) [21]) was 0.889. For the same compound, the “combination Emax” value [22] was 0.906, the Bliss excess [23] was -0.0558 and the Bliss excess [24] was -0.0245. The Bliss excess (A673 (Ewing's Sarcoma) [25]) was 0.0335, the Bliss excess (EW-11 (Ewing's Sarcoma) [26]) was 0.0215 and the Bliss excess [27] was 0.011. For the same compound, the Bliss excess [28] was 0.0374, the Bliss excess [29] was -0.0139 and the Bliss excess [30] was -0.0505. It also gave a Bliss excess [31] of -0.0085, a Bliss excess (LOXIMVI (Melanoma) [32]) of 0.021 and a Bliss excess [33] of -0.0486. The Bliss excess [34] was -0.0125, the Bliss excess [35] was -0.0401 and the Bliss excess (MPP-89 (Mesothelioma) [36]) was 0.0268. The Bliss excess [37] was 0.0278, the Bliss excess [38] was 0.0538 and the Bliss excess [39] was -0.0285. The Bliss excess (KS-1 (Glioblastoma) [40]) was -0.0337, the Bliss excess [41] was 0.0074 and the Bliss excess (CAL-72 (Osteosarcoma) [42]) was 0.129. For the same compound, the Bliss excess (GAMG (Glioblastoma) [43]) was 0.103 and the Bliss excess [44] was -0.0216.
